Assay results: ChEMBL document CHEMBL1138400, “Discovery of gamma-secretase inhibitors efficacious in a transgenic animal model of Alzheimer's disease” (Bioorg Med Chem Lett, 2007)
pIC50: −log10 of the molar value.

How the values were obtained:
Gamma-secretase [1] = experiment: Inhibition of gamma-secretase mediated amyloid beta-40 production in HEK293 cell membranes; assay type: cell-based, Homo sapiens
Gamma-secretase [2] = experiment: Inhibition of gamma-secretase mediated amyloid beta-40 production in HEK293 cells by whole cell-based assay; set-up: species or system Homo sapiens
in vivo = details: rat, plasma, po, 10 mg/kg
Description: AUC (0 to 6h) in rat at 10 mg/kg, po

SMILES	pIC50 (Gamma-secretase [1])	pIC50 (Gamma-secretase [2])	AUC(0-t) at 6 h (in vivo)
CN1CN(C)C2(CCN(C(=O)OC3(C4CCCC(c5cc(F)cc(F)c5)N4S(=O)(=O)c4ccc(Cl)cc4)CC3)CC2)C1=O (racemic)	8.28	–	–
O=C(OC[C@H]1CCC[C@@H](c2cc(F)cc(F)c2)N1S(=O)(=O)c1ccc(Cl)cc1)N1CCC2(CC1)C(=O)NCN2c1ccccc1 (racemic)	6.82	–	–
CCCC1(O)CCN(C(=O)OC2(C3CCCC(c4cccc(F)c4)N3S(=O)(=O)c3ccc(Cl)cc3)CC2)CC1 (racemic)	8.35	7.97	–
C[C@H]1CNCCN1C(=O)OC1(C2CCCC(c3cc(F)cc(F)c3)N2S(=O)(=O)c2ccc(Cl)cc2)CC1 (mixture of isomers)	7.77	6.81	–
CCN1CCN(C(=O)OC2(C3CCCC(c4cc(F)cc(F)c4)N3S(=O)(=O)c3ccc(Cl)cc3)CC2)CC1 (racemic)	8.96	8.12	1400 ng·h/mL
Cl.O=C(OC1(C2CCCC(c3cccc(F)c3)N2S(=O)(=O)c2ccc(Cl)cc2)CC1)N1CCC(N2CCCCC2)CC1 (racemic; form 2)	9.10	8.30	802 ng·h/mL
CC(C)N1CCN(C(=O)OC2(C3CCCC(c4cc(F)cc(F)c4)N3S(=O)(=O)c3ccc(Cl)cc3)CC2)CC1 (racemic)	8.57	7.77	783 ng·h/mL
O=C(OCC1CCCC(c2cccc(F)c2)N1S(=O)(=O)c1ccc(Cl)cc1)N1CCC(N2CCCCC2)CC1 (racemic)	7.95	–	1380 ng·h/mL
O=C(OC1(C2CCCC(c3cccc(F)c3)N2S(=O)(=O)c2ccc(Cl)cc2)CC1)N1C2CCC1CC(N1CC[C@@H](O)C1)C2 (mixture of isomers)	8.44	7.70	2090 ng·h/mL
O=C(OC1(C2CCCC(c3cc(F)cc(F)c3)N2S(=O)(=O)c2cc(F)cc(F)c2)CC1)N1CCN(CCO)CC1 (racemic)	7.77	7.61	23100 ng·h/mL
CC1CN(C(=O)OC2(C3CCCC(c4cccc(F)c4)N3S(=O)(=O)c3ccc(Cl)cc3)CC2)CC(C)N1 (racemic)	8.28	6.92	1810 ng·h/mL
C[C@H]1CN(CCO)CCN1C(=O)OC1(C2CCCC(c3cccc(F)c3)N2S(=O)(=O)c2ccc(Cl)cc2)CC1 (mixture of isomers)	8.68	7.54	7210 ng·h/mL
CCC(CO)NC1CC2CCC(C1)N2C(=O)OC1(C2CCCC(c3cccc(F)c3)N2S(=O)(=O)c2ccc(Cl)cc2)CC1 (racemic)	8.28	7.67	3070 ng·h/mL
CC(C)(OC(=O)N1CCC(N2CCCCC2)CC1)C1CCCC(c2cccc(F)c2)N1S(=O)(=O)c1ccc(Cl)cc1 (racemic)	8.36	–	2430 ng·h/mL
O=C(OC1(C2CCCC(c3cccc(F)c3)N2S(=O)(=O)c2ccc(Cl)cc2)CC1)N1C2CCC1CC(N1CCCCC1)C2 (racemic)	8.59	8.01	2880 ng·h/mL
C[C@H]1CN(C(C)(CO)CO)CCN1C(=O)OC1(C2CCCC(c3cccc(F)c3)N2S(=O)(=O)c2ccc(Cl)cc2)CC1 (mixture of isomers)	9.05	8.29	1770 ng·h/mL
O=C(OC1(C2CCCC(c3cc(F)cc(F)c3)N2S(=O)(=O)c2ccc(Cl)cc2)CC1)N1CCNCC1 (racemic; form 1)	8.10	–	–

More lines, in order of rising pIC50 (Gamma-secretase [1]), values ahead:

pIC50 (Gamma-secretase [1])	pIC50 (Gamma-secretase [2])	AUC(0-t) at 6 h (in vivo)	SMILES
6.78	–	–	CN(c1ccccc1)C1CCN(C(=O)OCC2CCCC(c3cc(F)cc(F)c3)N2S(=O)(=O)c2ccc(Cl)cc2)CC1 (racemic)
6.96	–	–	C[C@H]1CN(CC2CC2)CCN1C(=O)OCC1CCCC(c2cc(F)cc(F)c2)N1S(=O)(=O)c1ccc(Cl)cc1 (mixture of isomers)
7.13	–	–	O=C(OCC1CCCC(c2cc(F)cc(F)c2)N1S(=O)(=O)c1ccc(Cl)cc1)N1CCNCC1 (racemic)
7.44	–	–	O=C(OCC1CCCC(c2cc(F)cc(F)c2)N1S(=O)(=O)c1ccc(Cl)cc1)N1CCN(C2CCCCC2)CC1 (racemic)
7.57	–	–	CN1CN(C)C2(CCN(C(=O)OCC3CCCC(c4cc(F)cc(F)c4)N3S(=O)(=O)c3ccc(Cl)cc3)CC2)C1=O (racemic)
7.81	–	–	CN(c1ccccc1)C1CCN(C(=O)OC2(C3CCCC(c4cccc(F)c4)N3S(=O)(=O)c3ccc(Cl)cc3)CC2)CC1 (racemic)
8.07	–	–	O=C(OC1([C@H]2CCC[C@@H](c3cc(F)cc(F)c3)N2S(=O)(=O)c2ccc(Cl)cc2)CC1)N1CCC2(CC1)C(=O)NCN2c1ccccc1 (racemic)
8.10	6.97	6210 ng·h/mL	Cl.O=C(OC1(C2CCCC(c3cc(F)cc(F)c3)N2S(=O)(=O)c2ccc(Cl)cc2)CC1)N1CCNCC1 (racemic; form 2)
8.21	–	–	C[C@H]1CN(CC2CC2)CCN1C(=O)OC1(C2CCCC(c3cc(F)cc(F)c3)N2S(=O)(=O)c2ccc(Cl)cc2)CC1 (mixture of isomers)
8.38	–	–	O=C(OC1(C2CCCC(c3cc(F)cc(F)c3)N2S(=O)(=O)c2ccc(Cl)cc2)CC1)N1CCN(C2CCCCC2)CC1 (racemic)
8.43	8.11	–	O=C(OC1(C2CCCC(c3cccc(F)c3)N2S(=O)(=O)c2ccc(Cl)cc2)CC1)N1CCC(O)(C2CC2)CC1 (racemic)
8.46	7.89	5050 ng·h/mL	O=C(OC1(C2CCCC(c3cc(F)cc(F)c3)N2S(=O)(=O)c2cc(F)cc(F)c2)CC1)N1CCC(N2CCCCC2)CC1 (racemic)
8.64	8.26	1670 ng·h/mL	O=C(OC1(C2CCCC(c3cccc(F)c3)N2S(=O)(=O)c2ccc(Cl)cc2)CC1)N1CCC(N2CCC(F)(F)CC2)CC1 (racemic)
8.72	8.15	2090 ng·h/mL	O=C(OC1(C2CCCC(c3cccc(F)c3)N2S(=O)(=O)c2ccc(Cl)cc2)CC1)N1CCN(CCO)CC1 (racemic)
9.15	–	–	O=C(OC1(C2CCCC(c3cccc(F)c3)N2S(=O)(=O)c2ccc(Cl)cc2)CC1)N1CCC(N2CCCCC2)CC1 (racemic; form 1)
9.52	8.24	1080 ng·h/mL	O=C(OC1(C2CCCC(c3cc(F)cc(F)c3)N2S(=O)(=O)c2ccc(Cl)cc2)CC1)N1CCC(N2CCCCC2)CC1 (racemic)
